In patent US20220356163A1, “SMALL MOLECULE INHIBITORS OF Id PROTEINS” (MEMORIAL SLOAN KETTERING CANCER CENTER, priority 2019, published 2022):
Entries after “also recorded” stand apart in the source; their conditions may differ. Read-outs that look alike come from different tables or passages of the source.

Assays:
TFK-1 = assay: Cholangiocarcinoma cell viability, TFK-1; type: cell-based
Protocol: (§1) Cell viability assays. Cell lines were seeded in a 96 well plate (5000 cells per well). After overnight incubation, cells were treated with AGX51 and incubated for 24 hours then MTT reagent (5 mg/mL) was added per well and the cells were incubated for four hours. Following incubation, media was aspirated and 200 μL DMSO was added per well. Absorbance was then measured at 570 nm using a plate reader (Synergy 2, BioTek). Cell growth profiles were determined by seeding 38,000 cells in a 24-well plate, in triplicate for each time point, and counting the cells on days 1, 3 and 5 after seeding, using trypan blue exclusion of dead cells.
(§2) The effects of AGX51 and AGX-A on cholangiocarcinoma cell viability were assessed for the six different cholangiocarcinoma cell lines. The measured IC50 values (in μM) from these studies are provided in Table 2 below, along with the ratio of the AGX51 IC50 to the AGX-A IC50 to aid in comparison.

NanoLuc-ID1 = target: T1, NanoLuc-ID1 (Homo sapiens, UniProt P41134); assay: NanoBRET target engagement assay in digitonin-permeabilized 293T cells; type: cell-based; conditions: 2 μM tracer, 0-60 μM competitor, 50 μg/mL digitonin
T1 construct: expressed in transfected cells; host or cells: 293T cells, pcDNA3.1, digitonin-permeabilized
T1 sequence (P41134 whole entry): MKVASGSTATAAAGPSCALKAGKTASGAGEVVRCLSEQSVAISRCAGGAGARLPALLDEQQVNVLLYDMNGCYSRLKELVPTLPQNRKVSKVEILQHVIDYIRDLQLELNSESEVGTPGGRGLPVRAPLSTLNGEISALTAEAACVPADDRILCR
Protocol: NanoBRET™ target engagement assay. A N-terminal NanoLuc® luciferase ID1 fusion protein was synthesized by Genewiz (South Plainfield, N.J., USA) into the pUC57 backbone and then cloned into the pcDNA3.1 plasmid with EcoRI-HF and XbaI (both enzymes from New England Biolabs, Ipswich, Mass., USA). The assay was performed essentially as described in the NanoBRET™ TE Intracellular BET BRD Assay kit manual (Promega Corporation, Madison, Wis., USA). Briefly, cells were transfected and after 24 hours were plated onto flat bottom, non-binding surface, white, polystyrene 96-well plates (Corning Incorporated, Kennebunk, Me., USA). The AGX51 tracer was then added ([…]), followed by digitonin (Sigma, St. Louis, Mo., USA) to permeabilize the cells ([…]). The NanoBRET™ Nano-Glo® Substrate (Promega) was then added and readings taken using a GloMax Discover System instrument (Promega). For the competition assays, cells were treated with 2 μM of AGX51 tracer and 0-60 μM of AGX-A or AGX51.
This assay is based on the NanoBRET™ Target Engagement Intracellular BET BRD Assay (Promega). A construct expressing a NanoLuc® luciferase ID1 fusion protein and an AGX51-fluorescent tracer was generated (FIG. 10A). […]

SNU-1196 = assay: Cholangiocarcinoma cell viability, SNU-1196; type: cell-based
Protocol: as §1, §2

Id1 = target: T2, Id1 (Mus musculus, UniProt P20067); assay: Circular dichroism (CD) of Id1; type: binding
T2 construct: GST (N, cleaved yes); made in house; host or cells: E. coli Rosetta 2(DE3)
T2 sequence (P20067 1-168): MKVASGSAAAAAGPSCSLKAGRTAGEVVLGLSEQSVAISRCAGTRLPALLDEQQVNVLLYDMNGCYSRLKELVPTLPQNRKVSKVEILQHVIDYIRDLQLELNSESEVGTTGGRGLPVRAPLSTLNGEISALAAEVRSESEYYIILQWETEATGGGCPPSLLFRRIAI
Protocol: Id protein purification. pGEV-PSP-mId1 and mId3 expression constructs were transformed into Rosetta 2(DE3) Competent Cells (Sigma Millipore) for protein expression. To produce recombinant GST-tagged protein, a 50 mL LB/Ampicillin (100 μg/m)+Chloramphenicol (25 μg/mL) culture was grown overnight at 37° C. Early the next day, the overnight culture was diluted 1:100 into 6 L LB/Ampicillin+Chloramphenicol and cultured at 37° C. for about four hours until OD600=0.7. Cultures were induced with 1 mM IPTG and incubated at 16° C. for 16-18 hours. Cells were harvested by centrifugation at 4000 rpm for 15 minutes at 4° C. and the pellet was resuspended in lysis buffer (50 mM Tris pH 8.0; 400 mM NaCl; 0.5 mM TCEP, Protease Inhibitor Cocktail) (25 mL/L of culture). To lyse the cells, Triton X-100 and lysozyme were added to 0.1% and 10 μg/mL respectively, incubated for 30 minutes on ice and sonicated. Lysates were spun at 17,000 rpm for 30 minutes at 4° C. and supernatants were filtered through a […] filter before incubation with glutathione sepharose for two hours at 4° C. The sepharose with bound protein was run through a polypropylene column and washed twice with 50 mL wash buffer (50 mM Tris pH 8.0; 400 mM NaCl) before protein was eluted with 10 mL 50 mM glutathione elution buffer, pH 8.0. Protein was subjected to buffer exchange with PD10 columns (Sigma) into 12 mL storage buffer (50 mM Tris HCl pH 8.0, 400 mM NaCl, 10 mM EDTA, 1 mM DTT, 10% Glycerol).
GST-tag was cleaved with PreScission Protease (0.1 μL of 0.3 μg/μL PreScission Protease cleaves 10 μg of GST-mId1 when incubated at 4° C. for four hours) and incubated with Glutathione Sepharose to separate out the cleaved GST-tag. The cleaved mId1 protein was further cleaned by incubation with GST antibodies (Abcam #ab9085-200 μL anti-GST rabbit polyclonal; ThermoFisher #MA4-004 anti-GST mouse monoclonal) before Coomassie gel analysis. Cleaved protein was concentrated to desired strength using Amicon 3000MCO Ultra-4 centrifugal columns (UFC800308).
Circular dichroism. […]

WITT = assay: Cholangiocarcinoma cell viability, WITT; type: cell-based
Protocol: as §1, §2

SNU-1079 = assay: Cholangiocarcinoma cell viability, SNU-1079; type: cell-based
Protocol: as §1, §2

HCT116 cells = assay: IC50 in HCT116 cells (FIG. 7C); type: cell-based
HUCC-T1 = assay: Cholangiocarcinoma cell viability, HUCC-T1; type: cell-based
Protocol: as §1, §2

## CCC(=O)N(CCC(c1ccc2c(c1)OCO2)c1ccccc1OC)Cc1ccccc1 (racemic) [AGX51, N-(3-(benzo[d][1,3]dioxol-5-yl)-3-(2-methoxyphenyl)propyl)-N-benzylpropionamide]
TFK-1; TFK-1
  IC50: 15.7 µM
NanoLuc-ID1
  competition with AGX51 tracer: could be competed with AGX51
SNU-1196
  IC50: 28.8 µM
Id1; 0, 10, 20 and 50 μM
  alteration of Id1 secondary structure (CD spectra): significant alteration in the secondary structure of Id1
Id1; implied from saturation of CD changes, read-out: concentration at which CD changes saturated / range of dissociation constant
  Kd: ~20 µM
WITT
  IC50: 33.2 µM
SNU-1079
  IC50: 23.1 µM
HCT116 cells; Homo sapiens, HCT-116, HCT116 cells, FIG. 7C
  IC50: 22.3 µM
HUCC-T1; Homo sapiens, HuCCT-1
  IC50: 14.8 µM

## COc1ccccc1C(CCNCc1ccccc1)c1ccc(OC(C)C)cc1 (centres unmarked) [AGX-A, N-benzyl-3-(4-isopropoxyphenyl)-3-(2-methoxyphenyl)propan-1-anine]
TFK-1; 24 hour period, FIG. 23
  dose-dependent effect on TFK1 cell viability vs AGX51: superior anti-cancer potency
TFK-1; TFK-1
  (AGX51 IC50)/(AGX-A IC50): 1.33
  IC50: 11.8 µM
NanoLuc-ID1
  competition with AGX51 tracer: more efficiently; also recorded: exhibiting greater activity than AGX51; also recorded: worked at lower concentrations than AGX51
SNU-1196
  (AGX51 IC50)/(AGX-A IC50): 1.94
  IC50: 14.8 µM
Id1; comparison between compounds
  relative activity in CD assay with Id1: exhibiting greater activity than AGX51; also recorded: worked at lower concentrations than AGX51
WITT
  (AGX51 IC50)/(AGX-A IC50): 6.25
  IC50: 5.32 µM
SNU-1079
  (AGX51 IC50)/(AGX-A IC50): 3.95
  IC50: 5.84 µM
HCT116 cells; cell-based assays, FIGS. 7C-7D (HCT116 and 4T1)
  fold reduction in IC50 values vs AGX51: ~4 fold
HUCC-T1
  (AGX51 IC50)/(AGX-A IC50): 3.33
  IC50: 4.44 µM
